In PubChem BioAssay AID248 (DTP/NCI, 2004):
“And” between values parts separate entries of the source, which are not always exact repeats. Equal entries are not always repeated. Toxic doses and inconclusive results are not listed. Rule as the data show it: active = T/C of 150% or more; inactive = T/C below 125%.

Tested on: L1210 leukemia ip in BDF1 mice, survival T/C
Experiment: NCI In Vivo Anticancer Drug Screen. Data for tumor model L1210 Leukemia (intraperitoneal) in B6D2F1 (BDF1) mice
Conditions: endpoint: mean survival time, higher = longer survival
Method in brief: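 Tumor was transplanted into mice, which were then dosed with test compound or vehicle alone. Survival was recorded for each group, and the treated figure was expressed relative to the control figure.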

[1] = dose: 100.0 mg/kg/injection, schedule: Q01DX009 (ip), vehicle: Klucel (hydroxypropylcellulose) (HPC)
[2] = dose: 100.0 mg/kg/injection, schedule: Q04DX003 (ip), vehicle: Klucel (hydroxypropylcellulose) (HPC)
[3] = dose: 200.0 mg/kg/injection, schedule: Q04DX003 (ip), vehicle: Klucel (hydroxypropylcellulose) (HPC)
[4] = dose: 100.0 mg/kg/injection, schedule: Q01DX001 (ip), vehicle: saline with Tween-80
[5] = dose: 200.0 mg/kg/injection, schedule: Q01DX001 (ip), vehicle: saline with Tween-80
[6] = dose: 400.0 mg/kg/injection, schedule: Q01DX001 (ip), vehicle: saline with Tween-80
[7] = dose: 100.0 mg/kg/injection, schedule: Q01DX001 (ip), vehicle: saline
[8] = dose: 200.0 mg/kg/injection, schedule: Q01DX001 (ip), vehicle: saline
[9] = dose: 400.0 mg/kg/injection, schedule: Q01DX001 (ip), vehicle: saline
[10] = dose: 100.0 mg/kg/injection, schedule: Q04DX002 (ip), vehicle: Klucel (hydroxypropylcellulose) (HPC)
[11] = dose: 200.0 mg/kg/injection, schedule: Q04DX002 (ip), vehicle: Klucel (hydroxypropylcellulose) (HPC)
[12] = dose: 400.0 mg/kg/injection, schedule: Q04DX002 (ip), vehicle: Klucel (hydroxypropylcellulose) (HPC)
[13] = dose: 50.0 mg/kg/injection, schedule: Q01DX009 (ip), vehicle: saline with Tween-80
[14] = dose: 100.0 mg/kg/injection, schedule: Q01DX009 (ip), vehicle: saline with Tween-80
[15] = dose: 100.0 mg/kg/injection, schedule: Q01DX009 (ip), vehicle: saline
[16] = dose: 200.0 mg/kg/injection, schedule: Q01DX009 (ip), vehicle: Klucel (hydroxypropylcellulose) (HPC)
[17] = dose: 400.0 mg/kg/injection, schedule: Q01DX009 (ip), vehicle: Klucel (hydroxypropylcellulose) (HPC)

Measured: T/C

CN(C)CC1C2C=CC(C3CC23)C1CN(C)C (stereo not drawn)
inactive: dose: 25.0 mg/kg/injection, schedule: Q01DX009 (ip), vehicle: Klucel (hydroxypropylcellulose) (HPC) 113 % of control | dose: 25.0 mg/kg/injection, schedule: Q04DX003 (ip), vehicle: Klucel (hydroxypropylcellulose) (HPC) 94 % of control | dose: 50.0 mg/kg/injection, schedule: Q01DX009 (ip), vehicle: Klucel (hydroxypropylcellulose) (HPC) 107 % of control | dose: 50.0 mg/kg/injection, schedule: Q04DX003 (ip), vehicle: Klucel (hydroxypropylcellulose) (HPC) 102 % of control | [1] 108 % of control | [2] 94 % of control and 92 % of control | [3] 89 % of control

CC/C=C(CC)/C(CC)=C(/CC)CO
inactive: [4] 103 % of control | [5] 95 % of control | [6] 92 % of control

O=C(COc1ccc(Cl)cc1C(=O)O)NCc1ccc(NC(=O)Nc2cccc(S(=O)(=O)F)c2)cc1
inactive: [7] 96 % of control | [8] 93 % of control | [9] 104 % of control

CCCS(=O)(=O)N1CC(C)OC(C)C1 (stereo not drawn)
inactive: [10] 91 % of control | [11] 91 % of control | [12] 89 % of control

C[N+](C)(C)CCOC(=O)c1ccc(CBr)cc1
inactive: dose: 25.0 mg/kg/injection, schedule: Q01DX009 (ip), vehicle: saline with Tween-80 104 % of control | [13] 108 % of control | dose: 50.0 mg/kg/injection, schedule: Q04DX002 (ip), vehicle: saline 90 % of control | [14] 86 % of control | [15] 103 % of control | dose: 100.0 mg/kg/injection, schedule: Q04DX002 (ip), vehicle: saline 98 % of control

CC1(C)N=C(N)N=C(N)N1c1cccc(CNc2ccccc2)c1
inactive: dose: 3.12 mg/kg/injection, schedule: Q01DX001 (ip), vehicle: saline 95 % of control | dose: 6.25 mg/kg/injection, schedule: Q01DX001 (ip), vehicle: saline 103 % of control | dose: 12.5 mg/kg/injection, schedule: Q01DX001 (ip), vehicle: saline 98 % of control | dose: 25.0 mg/kg/injection, schedule: Q01DX001 (ip), vehicle: saline 93 % of control

ClCCCCC(Cl)(Cl)Cl
inactive: dose: 75.0 mg/kg/injection, schedule: Q01DX009 (ip), vehicle: saline 93 % of control | dose: 100.0 mg/kg/injection, schedule: Q04DX003 (ip), vehicle: saline 102 % of control | dose: 150.0 mg/kg/injection, schedule: Q01DX009 (ip), vehicle: saline 91 % of control | dose: 200.0 mg/kg/injection, schedule: Q04DX003 (ip), vehicle: saline 98 % of control | dose: 300.0 mg/kg/injection, schedule: Q01DX009 (ip), vehicle: saline 90 % of control | dose: 400.0 mg/kg/injection, schedule: Q04DX003 (ip), vehicle: saline 108 % of control

C=C(C)COC(OCC(=C)C)C(C)C
inactive: [1] 96 % of control | [10] 102 % of control | [16] 89 % of control | [11] 109 % of control | [12] 112 % of control

COc1ccc(/C=C2N=C(/C=C/c3ccccc3)OC\2=O)cc1OC
inactive: dose: 100.0 mg/kg/injection, schedule: Q04DX002 (ip), vehicle: gum acacia 88 % of control | dose: 200.0 mg/kg/injection, schedule: Q04DX002 (ip), vehicle: gum acacia 95 % of control | dose: 400.0 mg/kg/injection, schedule: Q04DX002 (ip), vehicle: gum acacia 88 % of control

C#CC1(OC(N)=O)CCCCC1
inactive: [1] 98 % of control | [16] 91 % of control | [17] 98 % of control

CN(C)C(=O)c1cccc(NC(=O)NCc2cccc(N3C(N)=NC(N)=NC3(C)C)c2)c1
inactive: [14] 91 % of control | dose: 100.0 mg/kg/injection, schedule: Q04DX003 (ip), vehicle: saline with Tween-80 97 % of control

CCOC(=O)c1cnc(SC)nc1N(CC)c1ccccc1
inactive: dose: 100.0 mg/kg/injection, schedule: Q01DX009 (ip), vehicle: gum acacia 105 % of control | dose: 100.0 mg/kg/injection, schedule: Q04DX003 (ip), vehicle: gum acacia 102 % of control | dose: 200.0 mg/kg/injection, schedule: Q01DX009 (ip), vehicle: gum acacia 100 % of control | dose: 200.0 mg/kg/injection, schedule: Q04DX003 (ip), vehicle: gum acacia 102 % of control | dose: 400.0 mg/kg/injection, schedule: Q01DX009 (ip), vehicle: gum acacia 102 % of control | dose: 400.0 mg/kg/injection, schedule: Q04DX003 (ip), vehicle: gum acacia 102 % of control

CCCCCCCCCC(CC)(CCCCCCC)CCCCCCCC (stereo not drawn)
inactive: [4] 103 % of control | [5] 99 % of control | [6] 103 % of control

O=C(O)CS(=O)(=O)c1nc2ccccc2[nH]1
inactive: dose: 100.0 mg/kg/injection, schedule: Q01DX009 (ip), vehicle: carboxymethylcellulose (CMC) 94 % of control | dose: 200.0 mg/kg/injection, schedule: Q01DX009 (ip), vehicle: carboxymethylcellulose (CMC) 91 % of control | dose: 400.0 mg/kg/injection, schedule: Q01DX009 (ip), vehicle: carboxymethylcellulose (CMC) 91 % of control

O=C(NC1CCCCC1)O/N=C/c1ccccn1
inactive: dose: 100.0 mg/kg/injection, schedule: Q04DX003 (ip), vehicle: other 94 % of control | dose: 200.0 mg/kg/injection, schedule: Q04DX003 (ip), vehicle: other 109 % of control | dose: 400.0 mg/kg/injection, schedule: Q04DX003 (ip), vehicle: other 94 % of control

CN(C/C=C/CN(C)P(=O)(N1CC1)N1CC1)P(=O)(N1CC1)N1CC1
inactive: dose: 6.25 mg/kg/injection, schedule: Q01DX009 (ip), vehicle: saline 107 % of control

C[CH2][Ge]([CH2]C)[O][Ge]([CH2]C)[CH2]C
inactive: dose: 5.0 mg/kg/injection, schedule: Q04DX002 (ip), vehicle: saline with Tween-80 95 % of control | dose: 10.0 mg/kg/injection, schedule: Q04DX002 (ip), vehicle: saline with Tween-80 100 % of control | dose: 20.0 mg/kg/injection, schedule: Q04DX002 (ip), vehicle: saline with Tween-80 95 % of control

O=Cc1c[nH]c2ccccc12
inactive: [7] 104 % of control | [1] 103 % of control | [2] 110 % of control | [8] 98 % of control | [16] 102 % of control | [3] 105 % of control | [9] 97 % of control | [17] 107 % of control | dose: 400.0 mg/kg/injection, schedule: Q04DX003 (ip), vehicle: Klucel (hydroxypropylcellulose) (HPC) 98 % of control

CNC(=O)OCC1=CC(=O)C=C(OC)C1=O
inactive: dose: 6.25 mg/kg/injection, schedule: Q01DX009 (ip), vehicle: gum acacia 90 % of control | dose: 12.5 mg/kg/injection, schedule: Q04DX003 (ip), vehicle: gum acacia 94 % of control | dose: 25.0 mg/kg/injection, schedule: Q04DX003 (ip), vehicle: gum acacia 101 % of control

O=c1[nH]c(=O)c2[nH]cnc2[nH]1
inactive: [13] 100 % of control | [14] 94 % of control | dose: 200.0 mg/kg/injection, schedule: Q01DX009 (ip), vehicle: saline with Tween-80 90 % of control

O=C1NC(CCO)C(=O)NC1CCO (stereo not drawn)
inactive: dose: 50.0 mg/kg/injection, schedule: Q01DX009 (ip), vehicle: saline 97 % of control | [7] 100 % of control | [15] 112 % of control | [8] 97 % of control | dose: 200.0 mg/kg/injection, schedule: Q01DX009 (ip), vehicle: saline 104 % of control | [9] 100 % of control

O=c1cc([N+](=O)[O-])n(O)cc1[N+](=O)[O-]
inactive: [7] 102 % of control | [8] 108 % of control | [9] 102 % of control
